Test results from patent publication US5663331A, “Cephalosporin compounds” (Il-Dong Pharm. Co., Ltd., priority 1992, dated 1997).
Converted amounts (≈) assume the structure as drawn.

Key:
Format in all cases: cell-based
[1] = test system: Klebsiella pneumoniae ATCC 10031; experiment: MIC, two-fold dilution method, Klebsiella pneumoniae ATCC 10031; conditions: 10^6 CFU per ml, 37° C., 18 to 20 hours; for Antibacterial Activity (MIC): Muller Hinton Broth; for MIC: ATCC10031, Muller Hinton Broth, read-out: Antibacterial Activity (MIC)
Procedure: (§1) In order to illustrate the usefulness of the invented compounds, the minimal inhibitory concentrations-(MIC) thereof against standard strains were determined and compared with Cefotaxime, a known compound. Also, the in vitro antibacterial activity was determined by a two-fold dilution method as described below: That is, the two-fold serial dilutions of the compound were made and dispersed in Muller Hinton Broth medium. Standard test strain which had the 10^6 CFU per ml was inoculated on the medium, and was incubated at 37° C. for 18 to 20 hours.

[2] = test system: Pseudomonas aeurginosa NCTC 10490; experiment: MIC, two-fold dilution method, Pseudomonas aeurginosa NCTC 10490; conditions: 10^6 CFU per ml, 37° C., 18 to 20 hours; for Antibacterial Activity (MIC): Muller Hinton Broth; for MIC: NCTC10490, Muller Hinton Broth, read-out: Antibacterial Activity (MIC)
Procedure: as §1

[3] = test system: Staphylococcus epidermidis ATCC 12228; experiment: MIC, two-fold dilution method, Staphylococcus epidermidis ATCC 12228; conditions: 10^6 CFU per ml, 37° C., 18 to 20 hours; for Antibacterial Activity (MIC): Muller Hinton Broth; for MIC: ATCC12228, Muller Hinton Broth, read-out: Antibacterial Activity (MIC)
Procedure: as §1

[4] = test system: Streptococcus faecalis ATCC 10541; experiment: MIC, two-fold dilution method, Streptococcus faecalis ATCC 10541; conditions: 10^6 CFU per ml, 37° C., 18 to 20 hours; for Antibacterial Activity (MIC): Muller Hinton Broth; for MIC: Enterococcus faecalis, ATCC10541, Muller Hinton Broth, read-out: Antibacterial Activity (MIC)
Procedure: as §1

[5] = test system: Bacillus subtilis ATCC 6633; experiment: MIC, two-fold dilution method, Bacillus subtilis ATCC 6633; conditions: 10^6 CFU per ml, 37° C., 18 to 20 hours; for Antibacterial Activity (MIC): Muller Hinton Broth; for MIC: ATCC6633, Muller Hinton Broth, read-out: Antibacterial Activity (MIC)
Procedure: as §1

[6] = test system: Staphylococcus aureus ATCC 65389; experiment: MIC, two-fold dilution method, Staphylococcus aureus ATCC 65389; conditions: 10^6 CFU per ml, 37° C., 18 to 20 hours; for Antibacterial Activity (MIC): Muller Hinton Broth; for MIC: ATCC65389, Muller Hinton Broth, read-out: Antibacterial Activity (MIC)
Procedure: as §1

[7] = test system: Esherichia coli ATCC 25922; experiment: MIC, two-fold dilution method, Esherichia coli ATCC 25922; conditions: Muller Hinton Broth, 10^6 CFU per ml, 37° C., 18 to 20 hours; for MIC: read-out: Antibacterial Activity (MIC)
Procedure: as §1

SMILES	Antibacterial Activity (MIC) [1] [µg/mL]	Antibacterial Activity (MIC) [2] [µg/mL]	Antibacterial Activity (MIC) [3] [µg/mL]	Antibacterial Activity (MIC) [4] [µg/mL]	Antibacterial Activity (MIC) [5] [µg/mL]	Antibacterial Activity (MIC) [6] [µg/mL]	Antibacterial Activity (MIC) [7] [µg/mL]	MIC [1] [µg/mL]	MIC [2] [µg/mL]	MIC [3] [µg/mL]	MIC [4] [µg/mL]	MIC [5] [µg/mL]	MIC [6] [µg/mL]	MIC [7] [µg/mL]
CCN1CCN(c2cc3c(cc2F)c(SCC2=C(C(=O)[O-])N4C(=O)C(NC(=O)/C(=N\OC)c5csc(N)n5)C4SC2)cc[n+]3CC)CC1 (stereo not drawn) [Compound I-11, 7-[(Z)-2-(2-aminothiazol-4-yl)-2-(methoxyimino)acetamido]-3-[1-ethyl-6-fluoro-7-(1-ethylpiperazinyl)quinolinium-4-yl]thiomethyl-3-cephem-4-carboxylat]								0.39 (≈ 0.546 µM)	1.56 (≈ 2.18 µM)	0.2 (≈ 0.28 µM)	0.05 (≈ 0.0699 µM)	0.1 (≈ 0.14 µM)	0.1 (≈ 0.14 µM)	1.56 (≈ 2.18 µM)
C=CC[n+]1ccc(SCC2=C(C(=O)[O-])N3C(=O)C(NC(=O)/C(=N\OC)c4csc(N)n4)[C@H]3SC2)c2cc(F)c(N3CCNCC3)cc21 (stereo partly drawn) [Compound I-13, 7-[(Z)-2-(2-aminothiazol-4-yl)-2-(methoxyimino)acetamido]-3-(1-allyl-6-fluoro-7-piperazinylquinolinium-4-yl)thiomethyl-3-cephem-4-carboxylate]								0.78 (≈ 1.12 µM)	1.56 (≈ 2.23 µM)	1.56 (≈ 2.23 µM)	0.78 (≈ 1.12 µM)	0.39 (≈ 0.558 µM)	1.56 (≈ 2.23 µM)	3.13 (≈ 4.48 µM)
CO/N=C(\C(=O)N[C@@H]1C(=O)N2C(C(=O)O)=C(COC(C)=O)CS[C@H]12)c1csc(N)n1 [CTX, Cefotaxime, reference compound]								0.39 (≈ 0.856 µM)	1.56 (≈ 3.43 µM)	0.78 (≈ 1.71 µM)	0.39 (≈ 0.856 µM)	0.2 (≈ 0.439 µM)	0.78 (≈ 1.71 µM)	0.78 (≈ 1.71 µM)
C=CCO/N=C(\C(=O)NC1C(=O)N2C(C(=O)[O-])=C(CSc3cc[n+](CC)c4cc(N5CCN(C)CC5)c(F)cc34)CSC12)c1csc(N)n1 (stereo not drawn) [Compound I-30, 7-[(Z)-2-(2-aminothiazol-4-yl)-2-(allyloxyimino)acetamido]-3-[1-ethyl-6-fluoro-7-(N-methylpiperazinyl)quinolinium-4-yl]thiomethyl-3-cephem-4-carboxylate]								0.78 (≈ 1.07 µM)	6.25 (≈ 8.6 µM)	0.78 (≈ 1.07 µM)	0.39 (≈ 0.537 µM)	0.39 (≈ 0.537 µM)	1.56 (≈ 2.15 µM)	3.13 (≈ 4.31 µM)
C#CCO/N=C(\C(=O)NC1C(=O)N2C(C(=O)[O-])=C(CSc3cc[n+](CC)c4cc(N5CCN(CC)CC5)c(F)cc34)CSC12)c1csc(N)n1 (stereo not drawn) [Compound I-47, 7-[(Z)-2-(2-aminothiazol-4-yl)-2-(propargyloxyimino)acetamido]-3-[1-ethyl-6-fluoro-7-(1-ethylpiperazinyl)quinolinium-4-yl]thiomethyl-3-cephem-4-carboxylate]								1.56 (≈ 2.11 µM)	1.56 (≈ 2.11 µM)	0.78 (≈ 1.06 µM)	0.1 (≈ 0.135 µM)	0.2 (≈ 0.271 µM)	0.2 (≈ 0.271 µM)	6.25 (≈ 8.46 µM)
CN1CCN(c2cc3c(cc2F)c(SCC2=C(C(=O)[O-])N4C(=O)C(NC(=O)/C(=N\OC(C)(C)C(=O)O)c5csc(N)n5)C4SC2)cc[n+]3C)CC1 (stereo not drawn) [Compound I-54, 7-[(Z)-2-(2-aminothiazol-4-yl)-2-(2-carboxyprop-2-oxyimino)acetamido]-3-[1-methyl-6-fluoro-7-(N-methylpiperazinyl)quinolinium-4-yl]thiomethyl-3-cephem-4-carboxylate]								3.13 (≈ 4.12 µM)	3.13 (≈ 4.12 µM)	3.13 (≈ 4.12 µM)	1.56 (≈ 2.06 µM)	0.78 (≈ 1.03 µM)	6.25 (≈ 8.24 µM)	6.25 (≈ 8.24 µM)
C=CCO/N=C(\C(=O)NC1C(=O)N2C(C(=O)[O-])=C(CSc3cc[n+](C)c4cc(N5CCN(C)CC5)c(F)cc34)CSC12)c1csc(N)n1 (stereo not drawn) [Compound I-22, 7-[(Z)-2-(2-aminothiazol-4-yl)-2-(allyloxyimino)acetamido]-3-[1-methyl-6-fluoro-7-(N-methylpiperazinyl)quinolinium-4-yl]thiomethyl-3-cephem-4-carboxylate]								0.39 (≈ 0.547 µM)	3.13 (≈ 4.39 µM)	0.1 (≈ 0.14 µM)	0.013 (≈ 0.0182 µM)	0.39 (≈ 0.547 µM)	0.2 (≈ 0.281 µM)	6.25 (≈ 8.77 µM)
C#CCO/N=C(\C(=O)NC1C(=O)N2C(C(=O)[O-])=C(CSc3cc[n+](C4CC4)c4cc(N5CCNCC5C)c(F)cc34)CS[C@H]12)c1csc(N)n1 (stereo partly drawn) [Compound I-44, 7-[(Z)-2-(2-aminothiazol-4-yl)-2-(propargyloxyimino)acetamido]-3-[1-cyclopropyl-6-fluoro-7-(2-methylpiperazinyl)quinolinium-4-yl]thiomethyl-3-cephem-4-carboxylate]	0.78	1.56	0.2	0.2	0.05	0.39	1.56							
C=CCO/N=C(\C(=O)NC1C(=O)N2C(C(=O)[O-])=C(CSc3cc[n+](C4CC4)c4cc(N5CCNCC5)c(F)cc34)CS[C@H]12)c1csc(N)n1 (stereo partly drawn) [Compound I-25, 7-[(Z)-2-(2-aminothiazol-4-yl)-2-(allyloxyimino)acetamido]-3-(1-cyclopropyl-6-fluoro-7-piperazinylquinolinium-4-yl)thiomethyl-3-cephem-4-carboxylate]								0.39 (≈ 0.538 µM)	0.39 (≈ 0.538 µM)	0.78 (≈ 1.08 µM)	0.2 (≈ 0.276 µM)	0.2 (≈ 0.276 µM)	0.78 (≈ 1.08 µM)	6.25 (≈ 8.62 µM)
CO/N=C(\C(=O)NC1C(=O)N2C(C(=O)[O-])=C(CSc3cc[n+](C)c4cc(N5CCN(C)CC5)c(F)cc34)CSC12)c1csc(N)n1 (stereo not drawn) [Compound I-2, 7-[(Z)-2-(2-aminothiazol-4-yl)-2-(methoxyimino)acetamido]-3-[1-methyl-6-fluoro-7-(N-methylpiperazinyl)quinolinium-4-yl]thiomethyl-3-cephem-4-carboxylate]								0.39 (≈ 0.568 µM)	3.13 (≈ 4.56 µM)	0.78 (≈ 1.14 µM)	0.39 (≈ 0.568 µM)	0.39 (≈ 0.568 µM)	1.56 (≈ 2.27 µM)	12.5 (≈ 18.2 µM)

Now from value to compound:

Antibacterial Activity (MIC) [1] [µg/mL]	Antibacterial Activity (MIC) [2] [µg/mL]	Antibacterial Activity (MIC) [3] [µg/mL]	Antibacterial Activity (MIC) [4] [µg/mL]	Antibacterial Activity (MIC) [5] [µg/mL]	Antibacterial Activity (MIC) [6] [µg/mL]	Antibacterial Activity (MIC) [7] [µg/mL]	MIC [1] [µg/mL]	MIC [2] [µg/mL]	MIC [3] [µg/mL]	MIC [4] [µg/mL]	MIC [5] [µg/mL]	MIC [6] [µg/mL]	MIC [7] [µg/mL]	SMILES
0.39	1.56	0.2	0.025	0.1	0.1	1.56								CC[n+]1ccc(SCC2=C(C(=O)[O-])N3C(=O)C(NC(=O)/C(=N\OC)c4csc(N)n4)[C@H]3SC2)c2cc(F)c(N3CCNCC3C)cc21 (stereo partly drawn) [Compound I-12, 7-[(Z)-2-(2-aminothiazol-4-yl)-2-(methoxyimino)acetamido]-3-[1-ethyl-6-fluoro-7-(2-methylpiperazinyl)quinolinium-4-yl]thiomethyl-3-cephem-4-carboxylate]
0.39	1.56	0.78	0.39	0.39	0.39	0.78								C=CCO/N=C(\C(=O)NC1C(=O)N2C(C(=O)[O-])=C(CSc3cc[n+](CC)c4cc(N5CCNCC5C)c(F)cc34)CS[C@H]12)c1csc(N)n1 (stereo partly drawn) [Compound I-32, 7-[(Z)-2-(2-aminothiazol-4-yl)-2-(allyloxyimino)acetamido]-3-[1-ethyl-6-fluoro-7-(2-methylpiperazinyl)quinolinium-4-yl]thiomethyl-3-cephem-4-carboxylate]
							0.78 (≈ 1.04 µM)	0.78 (≈ 1.04 µM)	0.78 (≈ 1.04 µM)	0.39 (≈ 0.518 µM)	0.39 (≈ 0.518 µM)	0.78 (≈ 1.04 µM)	1.56 (≈ 2.07 µM)	C=CCO/N=C(\C(=O)NC1C(=O)N2C(C(=O)[O-])=C(CSc3cc[n+](CC=C)c4cc(N5CCN(CC)CC5)c(F)cc34)CSC12)c1csc(N)n1 (stereo not drawn) [Compound I-35, 7-[(Z)-2-(2-aminothiazol-4-yl)-2-(allyloxyimino)acetamido]-3-[1-allyl-6-fluoro-7-(1-ethylpiperazinyl)quinolinium-4-yl]thiomethyl-3-cephem-4-carboxylate]
							3.13 (≈ 4.25 µM)	3.13 (≈ 4.25 µM)	0.78 (≈ 1.06 µM)	0.39 (≈ 0.529 µM)	0.2 (≈ 0.271 µM)	0.78 (≈ 1.06 µM)	3.13 (≈ 4.25 µM)	C#CCO/N=C(\C(=O)NC1C(=O)N2C(C(=O)[O-])=C(CSc3cc[n+](C4CC4)c4cc(N5CCN(C)CC5)c(F)cc34)CSC12)c1csc(N)n1 (stereo not drawn) [Compound I-42, 7-[(Z)-2-(2-aminothiazol-4-yl)-2-(propargyloxyimino)acetamido]-3-[1-cyclopropyl-6-fluoro-7-(N-methylpiperazinyl)quinolinium-4-yl]thiomethyl-3-cephem-4-carboxylate]
							0.39 (≈ 0.537 µM)	1.56 (≈ 2.15 µM)	0.78 (≈ 1.07 µM)	0.39 (≈ 0.537 µM)	0.1 (≈ 0.138 µM)	0.2 (≈ 0.275 µM)	1.56 (≈ 2.15 µM)	C=CC[n+]1ccc(SCC2=C(C(=O)[O-])N3C(=O)C(NC(=O)/C(=N\OC)c4csc(N)n4)C3SC2)c2cc(F)c(N3CCN(CC)CC3)cc21 (stereo not drawn) [Compound I-15, 7-[(Z)-2(2-aminothiazol-4-yl)-2-(methoxyimino)acetamido]-3-[1-allyl-6-fluoro-7-(1-ethylpiperazinyl)quinolinium-4-yl]thiomethyl-3-cephem-4-carboxylate]
